Source: patent US9095535B2, “GABA release-regulating agent in cerebellum” (KOREA INSTITUTE OF SCIENCE AND TECHNOLOGY, priority 2009, dated 2015)
Structures can show the parent of a compound that is named as a salt.

What was measured:
[1] = tested on: cerebellar granule cells; experiment: Whole-cell patch clamp of tonic GABA current in cerebellar granule cells; assay type: cell-based, mouse; details: for GABAzine-sensitive current after incubation: 150 μM BAPTA-AM (25 min) or 0.5 μM concanamycin A; for block of GABAzine-sensitive current by anion channel blockers: 100 μM Niflumic acid, DIDS concentration not given
Method: Brain slices were prepared as described in Rossi et al., 2003. For slice recording, either approximately P28 days old or more than 8 weeks old mice were used. Animals were deeply anesthetized with halothane. After decapitation, the brain was quickly excised from the skull and submerged in ice-cold cutting solution (in mM): 250 Sucrose, 26 NaHCO3, 10 D(+)-Glucose, 4 MgCl2, 3 myo-inositol, 2.5 KCl, 2 Sodium pyruvate, 1.25 NaH2PO4, 0.5 Ascorbic acid 0.1 CaCl2, 1 Kynurenic acid, pH 7.4. All solutions were gas-treated with 95% O2-5% CO2. After trimming both sides of vermis, several parasagittal slices with […] thicknesses containing cerebellar lobes were cut using a microtome (Leica VT 1000) and transferred to extracellular ACSF solution (in mM); 126 NaCl, 24 NaHCO3, 1 NaH2PO4, 2.5 KCl, 2.5 CaCl2, 2 MgCl2, 10 D(+)-Glucose, pH 7.4. Slices were incubated for one hour at least at room temperature.
For recording, slices were transferred to an electrophysiological recording chamber (RC-26G, Warner Instruments) which is continuously superfused with ASCF (artificial cerebrospinal fluid, sigma) solution (flow rate; 2 ml/min) and controlled by flower controller (Synaptosoft) and a vacuum pump (Charles Austen, model Capex 8C). Slice chamber was mounted on the stage of an upright microscope (Olympus, Japan) and viewed with an ×60 water immersion objective with differential interference contrast and infrared optics. Cellular morphologies were visually identified by Imaging Workbench 6.0 (INDEC Systems, Inc), camera controller (Hamamatsu, C4742-95), and light microscope controller (Olympus, TH4-200). Fluorescence images were viewed with mercury lamp (Olympus, U-RFL-T). Whole cell voltage-clamp recording was made from granular cell somata or Bergmann glial cells mostly located in 2-5 cerebellar lobules
Pipette resistance for granule cells was typically 10-12 MΩ and pipette was filled with an internal solution containing (in mM) 135 CsCl, 4 NaCl, 0.5 CaCl2, 10 HEPES, 5 EGTA, 2 Mg-ATP, 0.5 Na2-GTP, 10 QX-314, pH adjusted to 7.2 with CsOH (278-285 mOsmol) was used (Rossi, et al., 2003).
(§1) B6 wildtype, GFAP-GFP and hGFAP-CreERT2 trangenic mice (SPF room, Center for Neural Science, KIST, Seoul, Korea) were anaesthetized by intraperitoneal injection of 2% avertin (20 μl/g, sigma) and placed in a stereotaxic frame (David Kopf instrument). pSicoR-b1shRNA-mCherry or scrambled virus (Macrogen) was stereo-injected into cerebellar cortex at a rate of 0.2 μl/min (total 2 μl) using syringe pump (Harvard apparatus) and 25 μl syringe (Hamilton company). The coordination of injection site was 1.7 mm from the lambda and the depth was 1.5-1.7 mm from the skull.
The glia-specific CreERT activation was initiated by intraperitoneal injection of tamoxifen for 5 days prior to lentivirus injection (FIG. 4a,b). […] Tamoxifen or sunflower oil were injected intraperitoncally once a day for 5 days before lentivirus injection.

[2] = tested on: cell line derived from type-2 astrocytes; details: cited from earlier work
[3] = target: T1, hBest1 (Homo sapiens, UniProt O76090); details: cited from earlier work
T1 sequence (O76090 1-585): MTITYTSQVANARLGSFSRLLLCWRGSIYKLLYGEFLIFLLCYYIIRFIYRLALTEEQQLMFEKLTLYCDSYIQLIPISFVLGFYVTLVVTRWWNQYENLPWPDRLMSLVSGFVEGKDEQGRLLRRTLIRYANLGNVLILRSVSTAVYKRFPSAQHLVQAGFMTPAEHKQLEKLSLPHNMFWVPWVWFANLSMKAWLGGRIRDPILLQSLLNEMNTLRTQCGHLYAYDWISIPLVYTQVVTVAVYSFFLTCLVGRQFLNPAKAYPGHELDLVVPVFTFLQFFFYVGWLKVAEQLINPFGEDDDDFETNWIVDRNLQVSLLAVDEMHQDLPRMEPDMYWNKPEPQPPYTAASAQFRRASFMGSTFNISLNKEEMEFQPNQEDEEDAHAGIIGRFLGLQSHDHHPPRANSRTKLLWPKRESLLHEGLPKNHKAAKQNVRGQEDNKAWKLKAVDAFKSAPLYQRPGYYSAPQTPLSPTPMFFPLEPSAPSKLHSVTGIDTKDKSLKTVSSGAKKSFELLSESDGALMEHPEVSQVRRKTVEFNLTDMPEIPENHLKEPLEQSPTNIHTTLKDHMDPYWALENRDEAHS

[4] = tested on: cerebellar granule cells; experiment: Clomeleon imaging of [Cl−]i in cerebellar granule cells (tonic GABA release); assay type: cell-based, mouse; details: bath application of 10 μM
Method: as §1, with “skull. […]” for “skull.”
Clomeleon, based on fluorescence resonance energy transfer (FRET), is a genetically-encoded fluorescent indicator for Cl^− in which chloride-sensitive yellow fluroscent protein fused with chloride-insensitive cyan fluorescent protein via a flexible peptide linker (Kuner and Augustine, 2000). […]
For imaging, two ROIs (Regions of Interest) covering the granule cell layer and the molecular layer were drawn. […] Fluorescence excitation was produced by two consecutive 200 to 500 ms long light pulses at 0.5 Hz and fluorescence emission was alternately collected at each wavelength with a back-illuminated, cooled CCD camera with the on-chip multiplication gain control (Cascade 512B, Photometrics). […]

[5] = target: T2, Best1 channel (Mus musculus, UniProt O88870); assay type: cell-based; details: NPPB and NFA at 100 μM; inward current in GABAc sensor cell
T2 construct: mBest1 full-length fragment from pGEM-T easy plasmid (6.65 kb, Promega) was subcloned into pcDNA 3.1; expressed in transfected cells; host or cells: HEK293T (ATCC)
T2 sequence (O88870 1-551 R255K): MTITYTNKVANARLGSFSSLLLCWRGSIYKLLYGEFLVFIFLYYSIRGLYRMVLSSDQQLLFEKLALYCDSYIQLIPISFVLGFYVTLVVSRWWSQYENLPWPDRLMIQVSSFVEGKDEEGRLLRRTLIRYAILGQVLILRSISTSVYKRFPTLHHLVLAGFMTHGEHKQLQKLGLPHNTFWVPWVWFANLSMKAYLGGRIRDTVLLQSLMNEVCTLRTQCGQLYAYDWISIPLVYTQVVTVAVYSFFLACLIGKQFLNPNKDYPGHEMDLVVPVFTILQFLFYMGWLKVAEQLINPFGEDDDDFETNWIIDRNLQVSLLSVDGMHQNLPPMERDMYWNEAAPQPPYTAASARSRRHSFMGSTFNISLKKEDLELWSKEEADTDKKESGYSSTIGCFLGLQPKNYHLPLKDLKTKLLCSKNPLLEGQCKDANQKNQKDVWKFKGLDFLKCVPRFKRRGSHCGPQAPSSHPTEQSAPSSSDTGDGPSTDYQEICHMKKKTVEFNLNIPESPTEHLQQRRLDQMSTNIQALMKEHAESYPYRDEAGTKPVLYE
Description: For Best1 channel to mediate release of GABA, it has to permeate GABA upon channel opening. To test for GABA permeability of Best1 channel, a two-cell sniffer patch technique was developed to directly measure GABA release via Best1 channel in sensor HEK293T cells that express GABAc, and via other channels that are expressed in source HEK293T cells (FIG. 1b).
pIRES-Best1-dsRED plasmid (obtained by cloning Best1 using pIRES-dsRED (Invitrogen)) and GABAc with GFP (obtained by cloning GABAc using pcDNA3.1 (Invitrogen)) were transfected into HEK 293T cells (ATCC) using Effectene transfection reagent (Qiagen). […]
GABA release was induced by a break-though of membrane patch that goes into a whole-cell configuration in the source cell and such the released GABA was monitored and detected by a neighboring sensor cell. Full activation of GABA current was obtained by bath application of 100 μM GABA and the percentage of full activation was calculated (FIGS. 1c and 1d).
Permeated GABA is detected in sensor as an inward current (bottom traces). […] The GABA permeability of said mutant was determined by using cells obtained by transfecting said mutant into HEK293t cell (ATCC). […] The GABA permeability of said AN01 was determined by using cells obtained by transfecting said mutant into HEK293t cell (ACTT).

[6] = tested on: GABAc receptors; experiment: Patch clamp of GABAc expressing HEK293 cells challenged with 100 μM GABA; assay type: cell-based; details: 100 μM GABA in absence or presence of 100 μM NFA and 100 μM NPPB
Method: FIGS. 7a and 7b show the results when GABAc expressing HEK293 cells were patch clamped and challenged with 100 μM GABA in the absence and presence of 100 μM NFA and 100 μM NPPB; and
In FIGS. 7a and 7b, GABAc expressing HEK293 cells were patch clamped and challenged with 100 μM GABA in the absence or presence of 100 μM NFA and 100 μM NPPB.

CC(=O)OCOC(=O)CN(CC(=O)OCOC(C)=O)c1ccccc1OCCOc1ccccc1N(CC(=O)OCOC(C)=O)CC(=O)OCOC(C)=O [BAPTA-AM, 1,2-Bis(2-aminophenoxy)ethane-N,N,N′,N′-tetraacetic acid tetrakis(acetoxymethyl ester)]
GABAzine-sensitive current after incubation [1]: significantly reduced

O=S(=O)(O)c1cc(N=C=S)ccc1C=Cc1ccc(N=C=S)cc1S(=O)(=O)O [DIDS, 4,4′-diisothiocyanatostilbene-2,2′-disulfonic acid]
block of GABAzine-sensitive current by anion channel blockers [1]: blocked the GABAzine-sensitive current significantly | sensitivity of P2X7-induced [3H]-GABA release to inhibitors [2]: sensitive | block of hBest1 Cl− channel [3]: readily blocked

COc1ccc(-c2ccc(=N)n(CCCC(=O)O)n2)cc1 [GABAzine, SR95531 hydrobromide]
[Cl−]i in granular cell bodies and parallel fibers [4]: markedly decreased | GABAzine-sensitive current ([1]; naïve mice, holding −60 mV): 35.68±4.05 pA

O=C(O)c1cccnc1Nc1cccc(C(F)(F)F)c1 [NFA, Niflumic acid]
GABA release via Best1 [5]: completely abolished | block of GABAzine-sensitive current by anion channel blockers [1]: blocked the GABAzine-sensitive current significantly | block of hBest1 Cl− channel [3]: readily blocked | GABA response of GABAc expressing HEK293 cells [6]: do not have significant impact

CC(=O)Nc1ccc(C=Cc2ccc(N=C=S)cc2S(=O)(=O)O)c(S(=O)(=O)O)c1 [SITS, 4-acetamido-4′-isothiocyanostilbene-2,2′-disulphonic acid]
sensitivity of P2X7-induced [3H]-GABA release to inhibitors [2]: sensitive

CC/C(=C(\c1ccccc1)c1ccc(OCCN(C)C)cc1)c1ccccc1 [Tamoxifen]
NPPB-sensitive current ([1]; hGFAP-CreERT2 mice with Tamoxifen and Best1-shRNA lentivirus, naïve 18.95±2.47 pA): 19.27±2.2 pA | GABAzine-sensitive current ([1]; hGFAP-CreERT2 mice, tamoxifen i.p. 5 days, then Best1-shRNA lentivirus (glia-specific rescue)): 31.31±2.19 pA

C/C=C/[C@H]1O[C@@](O)([C@@H](C)[C@H](O)[C@H](C)[C@H]2OC(=O)/C(OC)=C/C(C)=C/[C@@H](C)[C@@H](O)[C@@H](CC)[C@@H](O)[C@H](C)C/C(C)=C/C=C/[C@@H]2OC)C[C@@H](O[C@H]2C[C@@H](O)[C@H](OC(N)=O)[C@@H](C)O2)[C@@H]1C [concanamycin A]
GABAzine-sensitive current after incubation [1]: did not have such affect
